From EPA's ToxValDB 9.5 (doi:10.2903/j.efsa.2009.262r)
Values after ≈ are worked out from the molar mass of the structure shown.

Legend:
Daphnia magna = settings: chronic/long-term; duration: 21 days
Rattus norvegicus = settings: for NOAEL: clinical chemistry
Apis mellifera = settings: acute, mortality
Oryctolagus sp. = settings: reproduction developmental; reproduction
Bibionidae = settings: chronic/long-term; duration: 28 days
Typhlodromus pyri = assay: LR50; higher = less toxic; settings: not reported; mortality
Aphidius rhopalosiphi = assay: LR50; higher = less toxic; settings: not reported; mortality

SMILES: CCOP(=O)(SC(C)CC)SC(C)CC (configuration not stated) [Cadusafos]
- NOEC (Daphnia magna): 0.231 µg/L
- LD50 (Rattus norvegicus; acute, oral, mortality): 37.1 mg/kg
- NOAEL (Rattus norvegicus; chronic, duration: 2 years, F): 0.045 mg/kg-day
- NOAEL (Rattus norvegicus; subchronic, duration: 90 days, oral): 0.067 mg/kg-day
- LD50 (Apis mellifera; dermal): 1.8 µg/piece
- LD50 (Apis mellifera; oral, unspecified): 2.07 µg/piece
- LC50 (Oncorhynchus mykiss; acute, duration: 96 hours, mortality): 0.13 µg/mL (≈ 0.481 µM)
- NOEC (Oncorhynchus mykiss; chronic/long-term, duration: 95 days): 5.22 µg/L
- NOAEL (Oryctolagus sp.): 0.3 mg/kg-day
- NOEC (Bibionidae): 32 µg/kg
- LC50 (Tagia sp.; acute, mortality): 7.2 mg/kg
- NOEC (Tagia sp.; chronic/long-term): 1.8 mg/kg
- LC50 (Colinus virginianus; acute, oral, diet, mortality): 10.8 mg/kg-day
- LD50 (Colinus virginianus; acute, oral, mortality): 16.1 mg/kg-day
- NOEL (Colinus virginianus; reproduction developmental): ≥ 1.1 mg/kg-day
- LR50 (Typhlodromus pyri): 44.4 g/ha
- LR50 (Aphidius rhopalosiphi): 3.75 g/ha
